The record followed here is article PMC10584170, “Machine learning-based phenotypic imaging to characterise the targetable biology of Plasmodium falciparum male gametocytes for the development of transmission-blocking antimalarials” (PLOS Pathogens, 2023).

Like-named read-outs stand apart in the source and are kept apart here. A value given as a limit tells only on which side of the number the result lay.

One data set concerns HepG2 cells. The experiment in a line: HepG2 cytotoxicity counter-screen. The settings on record: cytotoxic activity against HepG2 cells. In general terms: Counterscreens check selectivity or assay interference.
For data set [1], the system named is P. falciparum male gametocytes. The experiment in a line: P. falciparum Dual Gamete Formation Assay (PfDGFA), male readout (exflagellation). The format is cell-based, Plasmodium falciparum NF54. The settings on record: for Selectivity Ratio M: HepG2 Tox50 versus male IC50; for IC50: PfDGFA, 24 h incubation with gametocytes before induction, exflagellation readout, read-out: Male IC50; for HitlevelM: number of replicates with >50% inhibition in the male readout. A digest of the protocol: (§1)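 NF54 mature gametocytes (d14), cpd 24 h 37°C hypoxic gas; trigger: xanthurenic acid ookinete medium + Cy3 anti-Pfs25, 4°C 4 min → 28°C 4 min. Male: exflagellation centres, brightfield x6. Female: Pfs25+ gametes, fluorescence, +24 h 28°C dark.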

Data set [2] deals with P. falciparum female gametocytes. The experiment in a line: P. falciparum Dual Gamete Formation Assay (PfDGFA), female readout (Pfs25-positive female gametes). The format is cell-based, Plasmodium falciparum NF54. The settings on record: for Selectivity ratio F: HepG2 Tox50 versus female IC50; for IC50: PfDGFA, 24 h incubation with gametocytes before induction, female gamete readout, read-out: Female IC50; for HitlevelF: number of replicates with >50% inhibition in the female readout. A digest of the protocol: as §1

Where [3] appears, read: Plasmodium falciparum, PfDGFA at 2µM, 24h preincubation with gametocytes, average of replicates, read-out: Average inhibition male (%).
[4] abbreviates: Plasmodium falciparum, PfDGFA at 2µM, 24h preincubation with gametocytes, replicate R1, read-out: % inhibition male (individual replicates) R1.
[5] abbreviates: Plasmodium falciparum, PfDGFA at 2µM, 24h preincubation with gametocytes, replicate R2, read-out: % inhibition male (individual replicates) R2.
Setting [6] is: Plasmodium falciparum, PfDGFA at 2µM, 24h preincubation with gametocytes, replicate R3, read-out: % inhibition male (individual replicates) R3.
Where [7] appears, read: Plasmodium falciparum, PfDGFA at 2µM, 24h preincubation with gametocytes, replicate R4, read-out: % inhibition male (individual replicates) R4.
Setting [8] is: Plasmodium falciparum, PfDGFA at 2µM, 24h preincubation with gametocytes, average of replicates, read-out: Average inhibition female (%).
The mark [9] stands for this setting: Plasmodium falciparum, PfDGFA at 2µM, 24h preincubation with gametocytes, replicate R1, read-out: % inhibition female (individual replicates) R1.
Where [10] appears, read: Plasmodium falciparum, PfDGFA at 2µM, 24h preincubation with gametocytes, replicate R2, read-out: % inhibition female (individual replicates) R2.
[11] abbreviates: Plasmodium falciparum, PfDGFA at 2µM, 24h preincubation with gametocytes, replicate R3, read-out: % inhibition female (individual replicates) R3.
The mark [12] stands for this setting: Plasmodium falciparum, PfDGFA at 2µM, 24h preincubation with gametocytes, replicate R4, read-out: % inhibition female (individual replicates) R4.
[13] abbreviates: Plasmodium falciparum, 2µM, 24h preincubation with gametocytes, average of replicates, read-out: Average inhibition male (%).
[14] abbreviates: Plasmodium falciparum, 2µM, 24h preincubation with gametocytes, replicate R1, read-out: % inhibition male (individual replicates) R1.
Where [15] appears, read: Plasmodium falciparum, 2µM, 24h preincubation with gametocytes, replicate R2, read-out: % inhibition male (individual replicates) R2.
The mark [16] stands for this setting: Plasmodium falciparum, 2µM, 24h preincubation with gametocytes, replicate R3, read-out: % inhibition male (individual replicates) R3.
The mark [17] stands for this setting: Plasmodium falciparum, 2µM, 24h preincubation with gametocytes, replicate R4, read-out: % inhibition male (individual replicates) R4.
The mark [18] stands for this setting: Plasmodium falciparum, 2µM, 24h preincubation with gametocytes, average of replicates, read-out: Average inhibition female (%).
[19] abbreviates: Plasmodium falciparum, 2µM, 24h preincubation with gametocytes, replicate R1, read-out: % inhibition female (individual replicates) R1.
Setting [20] is: Plasmodium falciparum, 2µM, 24h preincubation with gametocytes, replicate R2, read-out: % inhibition female (individual replicates) R2.
Where [21] appears, read: Plasmodium falciparum, 2µM, 24h preincubation with gametocytes, replicate R3, read-out: % inhibition female (individual replicates) R3.
Setting [22] is: Plasmodium falciparum, 2µM, 24h preincubation with gametocytes, replicate R4, read-out: % inhibition female (individual replicates) R4.
The mark [23] stands for this setting: 2µM, 24h preincubation with gametocytes, average of replicates.
[24] abbreviates: 2µM, 24h preincubation with gametocytes, replicate R1.
Where [25] appears, read: 2µM, 24h preincubation with gametocytes, replicate R3.
Where [26] appears, read: 2µM, 24h preincubation with gametocytes, replicate R4.

Broadly, the inhibition is the drop in the measured response relative to a control, in per cent. What is called IC50 is the concentration that gives 50% inhibition. On to `COc1ccc(Nc2ncc(Cl)c(Nc3cccnc3C(N)=O)n2)cc1N1CCN(C)CC1.Cl` [TCMDC-134163], for which, in the data set with HepG2 cells, the Tox50 was 2.98 µM. Also, the “Selectivity Ratio M” value in data set [1] is recorded as 7.51. Further, the inhibition at 2 µM was 79.9% in data set [1] (setting [3]); 77.1% in data set [1] (setting [4]); 88.9% in data set [1] (setting [5]); 73.4% in data set [1] (setting [6]); 80.2% in data set [1] (setting [7]); -4.7% in data set [2] (setting [8]). Also, the inhibition at 2 µM in data set [2] (setting [9]) was 1.7%; in data set [2] (setting [10]), -23.4%; in data set [2] (setting [11]), -4.2%; in data set [2] (setting [12]), 7%. Moreover, the values for the IC50 in data set [1] (Plasmodium falciparum) and in data set [2] (Plasmodium falciparum) were 400 nM and above 10000 nM, respectively. In data set [1] (2µM), the HitlevelM worked out at 4. For the same compound, in data set [2], the “Selectivity ratio F” value was determined as 0.3. Besides, in data set [2] (2µM), the HitlevelF is 0.

For the compound `CN1CCN(c2ccc(Nc3ncc(Cl)c(Nc4cccnc4C(N)=O)n3)cc2)CC1.Cl` [TCMDC-134164], the Tox50 in the data set on HepG2 cells is listed as 6.29 µM. The “Selectivity Ratio M” value in data set [1] is 13.8. In addition, the inhibition at 2 µM in data set [1] (setting [13]) was 93.6%; in data set [1] (setting [14]), 95.4%; in data set [1] (setting [15]), 93.6%; in data set [1] (setting [16]), 90.2%; in data set [1] (setting [17]), 95.2%; in data set [2] (setting [18]), -2.7%. In addition, the inhibition at 2 µM was -3.8% in data set [2] (setting [19]), 5.1% in data set [2] (setting [20]), -16.9% in data set [2] (setting [21]) and 4.9% in data set [2] (setting [22]). Also, the IC50 in data set [1] (Plasmodium falciparum) amounted to 460 nM; in data set [2] (Plasmodium falciparum) it was 5470 nM. Besides, the “Selectivity ratio F” value in data set [2] came to 1.15.

`Cc1ccc(C(C(=O)Nc2ccc(N3CCNCC3)c(Cl)c2)c2ccccc2)cc1` (centres unmarked) [TCMDC-134292] showed a Tox50 in the data set with HepG2 cells of 11.32 µM. The “Selectivity Ratio M” value in data set [1] is 27.18. Besides, the inhibition at 2 µM in data set [1] (setting [13]) came out at 93.6%; in data set [1] (setting [14]), 96.8%; in data set [1] (setting [15]), 85.1%; in data set [1] (setting [16]), 98.4%; in data set [1] (setting [17]), 94.1%; in data set [2] (setting [18]) it was 61.9%. In addition, the inhibition at 2 µM is 54.2% in data set [2] (setting [19]), 48.2% in data set [2] (setting [20]), 79.2% in data set [2] (setting [21]) and 66% in data set [2] (setting [22]). The 50% inhibitory concentration (IC50) was 420 nM in data set [1] (Plasmodium falciparum) and above 10000 nM in data set [2] (Plasmodium falciparum). Further, the “Selectivity ratio F” value in data set [2] turned out to be 1.13.

With `COc1c(C2CCN(CCCCNC(=O)c3ccc(-c4ccc(Cl)cc4)c(OCCN(C)C)c3)CC2)ccc2c1CCCC2` [TCMDC-134371], the Tox50 with HepG2 cells worked out at 5.71 µM. The “Average inhibition male (%)” value in data set [1] (setting [23]) amounted to 98.8%. In addition, the “% inhibition male (individual replicates) R1” value in data set [1] (setting [24]) is 97.3%. Further, the “% inhibition male (individual replicates) R3” value in data set [1] (setting [25]) is 99.5%. Besides, the “% inhibition male (individual replicates) R4” value in data set [1] (setting [26]) turned out to be 100.2%. In addition, in data set [1], the “Selectivity Ratio M” value is 3.17 and the IC50 amounted to 1800 nM. The “Average inhibition female (%)” value in data set [2] (setting [23]) is on record as 90.2%. Further, in data set [2] (setting [24]), the “% inhibition female (individual replicates) R1” value was 90.8%. Also, the “% inhibition female (individual replicates) R3” value in data set [2] (setting [25]) came out at 96.4%. Also, the “% inhibition female (individual replicates) R4” value in data set [2] (setting [26]) is reported as 89.7%. Also, in data set [2], the “Selectivity ratio F” value is 0.69 and the IC50 is 8290 nM.

In the case of `COc1cc2c(cc1S(=O)(=O)c1ccc(COc3ccc(C(F)(F)F)cc3)cc1)CNCC2.Cl` [TCMDC-134479], the Tox50 in the data set on HepG2 cells was 16.6 µM. In addition, the “Selectivity Ratio M” value in data set [1] came out at 11.99. In addition, the inhibition at 2 µM in data set [1] (setting [3]) was 89.2%; in data set [1] (setting [4]), 89.3%; in data set [1] (setting [5]), 88%; in data set [1] (setting [6]) it was 76%; in data set [1] (setting [7]) it was 104%; in data set [2] (setting [8]), 10%. The inhibition at 2 µM was 16.9% in data set [2] (setting [9]), 9.1% in data set [2] (setting [10]), -0.43% in data set [2] (setting [11]) and 14.6% in data set [2] (setting [12]). For the same compound, the IC50 in data set [1] (Plasmodium falciparum) is 1380 nM; in data set [2] (Plasmodium falciparum) it was above 10000 nM. This compound also came in with a HitlevelM in data set [1] (2µM) of 4. For the same compound, the “Selectivity ratio F” value in data set [2] worked out at 1.66. The same compound registered a HitlevelF in data set [2] (2µM) of 0.
